Broadly, the IC50 is the concentration needed to halve the response being measured.

Structures can show the parent of a compound that is named as a salt.

Sequence of human KAT II (hKAT II) enzyme (Q8N5Z0 30-425): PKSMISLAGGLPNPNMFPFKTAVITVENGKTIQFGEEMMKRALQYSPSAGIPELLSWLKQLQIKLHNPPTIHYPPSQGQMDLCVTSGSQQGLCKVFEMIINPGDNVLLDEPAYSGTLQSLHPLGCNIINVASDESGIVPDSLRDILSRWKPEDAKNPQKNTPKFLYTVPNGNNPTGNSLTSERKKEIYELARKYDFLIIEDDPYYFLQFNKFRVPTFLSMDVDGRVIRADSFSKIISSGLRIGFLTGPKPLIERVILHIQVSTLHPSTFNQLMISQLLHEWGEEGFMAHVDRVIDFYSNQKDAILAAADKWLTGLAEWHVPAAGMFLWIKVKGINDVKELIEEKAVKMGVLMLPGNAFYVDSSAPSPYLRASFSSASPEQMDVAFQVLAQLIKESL

The target of one experiment is human KAT II (hKAT II) enzyme (Homo sapiens, UniProt Q8N5Z0). As to the kind of experiment: KAT II Inhibition Spectra Assay. The format is biochemical. The conditions noted are these: single determination unless marked a (geometric mean of 2-4 determinations); decrease in OD370, L-kynurenine substrate, 37° C. for 15-20 h; hydrochloride salt; read-out: KATII IC50. As for the experimental part:
KAT II Inhibition Spectra Assay
Formation of kynurenic acid (KYNA) is indirectly assessed by a decrease in light absorbance at 370 nm (OD370) as the L-kynurenine (KYN) substrate is converted by the human KAT II (hKAT II) enzyme into KYNA. An inhibitor would therefore inhibit the decrease in OD370.
The protocol was performed by placing the following reagents into a Costar 384 well black plate (30 μL total assay volume/well): • 10 μL of 3× concentrated compound; • 10 μL of 3× concentrated substrate mix (BGG (Sigma G-5009); 3 mM L-Kynurenine in 150 mM Tris Acetate (Sigma K3750); 3 mM α-ketoglutaric acid in 150 mM Tris Acetate (Sigma K2010); and 210 μM pyridoxal 5-phosphate (PLP) in 150 mM Tris Acetate (Sigma 9255)); and • 10 μL of 3× concentrated enzyme (15 nM enzyme in 150 mM Tris Acetate with 0.3% bovine serum).
Plates were sealed and incubated at 37° C. for 15-20 h before reading OD370 on a SpectraMax Plus plate reader. IC50s were generated by comparing the efficacy of compounds across a concentration range to inhibit a reduction in the OD370 value relative to assay wells with DMSO added in place of concentrated compound. Biological data for the Examples may be found in Table 2.
For the molecule `COc1cccc(Oc2ccc3c(c2)CC(N)c2n[nH]c(=O)n2-3)c1` (single isomer, unassigned; ent-1) [Example 1, 4-Amino-7-(3-methoxyphenoxy)-4,5-dihydro[1,2,4]triazolo[4,3-a]quinolin-1(2H)-one ENT-1, hydrochloride salt], the IC50 was determined as 188 nM.

The same experiment, now with this note: single determination unless marked a (geometric mean of 2-4 determinations); decrease in OD370, L-kynurenine substrate, 37° C. for 15-20 h; read-out: KATII IC50.
With `CCOc1ccc(Cl)cc1-c1ccc2c(c1)CC(N)c1n[nH]c(=O)n1-2` (stereo not shown) [Example 39, 4—amino—7—(5—chloro—2—ethoxyphenyl)—4,5—dihydro[1,2,4]triazolo[4,3—a]quinolin—1(2H)—one, trifluoroacetate salt], the IC50 is 968 nM. The same measure, in the same setting: under `Cc1ccc(C)c(-c2ccc3c(c2)CC(N)c2n[nH]c(=O)n2-3)c1` (stereo not shown) [Example 38, 4—amino—7—(2,5-dimethylphenyl)—4,5—dihydro[1,2,4]triazolo[4,3—a]quinolin—1(2H)—one, trifluoroacetate salt] stands 591 nM. Same read-out and setting: under `NC1Cc2cc(-c3cccc4ncccc34)ccc2-n2c1n[nH]c2=O` (stereo not shown) [Example 16, 4—amino—7—(quinolin—5—yl)—4,5—dihydro[1,2,4]triazolo[4,3—a]quinolin—1(2H)—one, trifluoroacetate salt] stands 664 nM; under `NC1Cc2cc(-c3cccc(OC(F)(F)F)c3)ccc2-n2c1n[nH]c2=O` (stereo not shown) [Example 23, 4—amino—7—[3—(trifluoromethoxy)pheny1]—4,5—dihydro[1,2,4]triazolo[4,3—a]quinolin—1(2H)—one, trifluoroacetate salt], 684 nM; under `NC1Cc2cc(-c3ccc(Cl)cc3Cl)ccc2-n2c1n[nH]c2=O` (stereo not shown) [Example 35, 4—amino—7—(2,4—dichlorophenyl)—4,5—dihydro[1,2,4]triazolo[4,3—a]quinolin—1(2H)—one, trifluoroacetate salt], 1380 nM. The same measure, in the same setting: under `NC1Cc2cc(Oc3cccc(C(F)(F)F)c3)ccc2-n2cnnc21` (stereo not shown) [Example 10, 7—[3—(trifluoromethyl)phenoxy]—4,5—dihydro[1,2,4]triazolo[4,3—a]quinolin—4—amine, hydrochloride salt] stands 185 nM. On to `NC1Cc2cc(Oc3ccccc3)ccc2-n2c1n[nH]c2=O` (stereo not shown) [Example 48, 4—amino—7—phenoxy—4,5—dihydro[1,2,4]triazolo[4,3—a]quinolin—1(2H)—one, hydrochloride salt], for which the concentration for half-maximal inhibition (IC50) was found to be 83.7 nM. Still for that read-out and setting: the same measure for `NC1Cc2cc(-c3ccc(F)cc3)ccc2-n2c1n[nH]c2=O` (stereo not shown) [Example 24, 4—amino—7—(4—fluorophenyl)—4,5—dihydro[1,2,4]triazolo[4,3—a]quinolin—1(2H)—one. trifluoroacetate salt]: 1080 nM; for `Cn1ncc2c(-c3ccc4c(c3)CC(N)c3n[nH]c(=O)n3-4)cccc21` (stereo not shown) [Example 15, 4—amino—7(1—methyl—1H—indazol—4—yl)—4,5—dihydro[1,2,4]triazolo[4,3—a]quinolin—1(2H)—one, trifluoroacetate salt]: 262 nM; for `NC1Cc2cc(Oc3cccc(C(F)(F)F)c3)ccc2-n2c1n[nH]c2=O` (stereo not shown) [Example 3, 4-amino-7-[3-(trifluoromethyl)phenoxy]-4,5-dihydro[1,2,4]triazolo[4,3-a]quinolin-1(2H)-one, hydrochloride salt]: 91.4 nM.

`COc1cccc(-c2ccc3c(c2)CC(N)c2n[nH]c(=O)n2-3)c1` (stereo not shown) [Example 28, 4—amino—7—(3—methoxyphenyl)—4,5—dihydro[1,2,4]triazolo[4,3—a]quinolin—1(2H)—one, trifluoroacetate salt]: the IC50 came out at 357 nM. The same measure, in the same setting: under `COc1cccc(Oc2ccc3c(c2)CC(N)c2n[nH]c(=O)n2-3)c1` (single isomer, unassigned; ent-2) [Example C9, 4-amino-7-(3-methoxyphenoxy)-4,5-dihydro[1,2,4]triazolo[4,3-a]quinolin-1(2H)-one ENT-2, hydrochloride salt] stands 3720 nM; under `COc1ccc(F)cc1-c1ccc2c(c1)CC(N)c1n[nH]c(=O)n1-2` (stereo not shown) [Example 32, 4—amino—7—(5—fluoro—2—methoxyphenyl)—4,5—dihydro[1,2,4]triazolo[4,3—a]quinolin—1(2H)—one, trifluoroacetate salt], 302 nM; under `NC1Cc2cc(-c3cc(C(F)(F)F)ccc3Cl)ccc2-n2c1n[nH]c2=O` (stereo not shown) [Example 21, 4—amino—7—[2—chloro—5—(trifluoromethyl)phenyl]—4,5—dihydro[1,2,4]triazolo[4,3—a]quinolin—1(2H)—one, trifluoroacetate salt], 1250 nM. Same read-out and setting: the same measure for `NC1Cc2cc(-c3cccc(F)c3)ccc2-n2c1n[nH]c2=O` (stereo not shown) [Example 34, 4—amino—7—(3—fluorophenyl)—4,5—dihydro[1,2,4]triazolo[4,3—a]quinolin—1(2H)—one, trifluoroacetate salt]: 415 nM.
